Source: the NIST ThermoML archive (doi:10.1016/j.jct.2016.08.001)

Columns and labels:
[1] = xn = mol fraction of the nth substance listed; conditions: 100 kPa, Liquid; for speed of sound: Frequency=3 MHz, Sing-around technique in a fixed-path interferometer; for mass density: Vibrating tube method
[2] = refractive index (Na D-line) (dimensionless); xn = mol fraction of the nth substance listed; conditions: 100 kPa, Liquid, Standard Abbe refractometry

Nc1ccccc1 [aniline] + CCOC(=O)OCC
Conditions	mass density, [1] [kg/m3]	refractive index, [2]	speed of sound, [1] [m/s]
298.15 K, x2 = 0	1017.1	1.5826	1636.8
298.15 K, x2 = 0.073	1014.2	1.5649	1594.4
298.15 K, x2 = 0.1652	1010.2	1.5435	1543.3
298.15 K, x2 = 0.2537	1006.4	1.5237	1497.7
298.15 K, x2 = 0.3387	1002.6	1.5053	1455.9
298.15 K, x2 = 0.4432	998	1.4835	1407.9
298.15 K, x2 = 0.5468	993	1.4626	1361.3
298.15 K, x2 = 0.6546	987.7	1.4419	1316
298.15 K, x2 = 0.7559	982.5	1.4235	1274.2
298.15 K, x2 = 0.884	975.9	1.4016	1222.6
303.15 K, x2 = 0	1012.7	1.5793	1617.5
303.15 K, x2 = 0.073	1009.8	1.562	1575.1
303.15 K, x2 = 0.1652	1005.7	1.5408	1523.9
303.15 K, x2 = 0.2537	1001.8	1.5212	1478.3
303.15 K, x2 = 0.3387	997.9	1.5029	1436.4
303.15 K, x2 = 0.4432	993.2	1.4813	1388.2
303.15 K, x2 = 0.5468	988.1	1.4606	1341.5
303.15 K, x2 = 0.6546	982.6	1.4401	1296
303.15 K, x2 = 0.7559	977.3	1.4216	1254.1
303.15 K, x2 = 0.884	970.5	1.3995	1202.3
308.15 K, x2 = 0	1008.4	1.576	1598.3
308.15 K, x2 = 0.073	1005.4	1.559	1555.8
308.15 K, x2 = 0.1652	1001.2	1.538	1504.6
308.15 K, x2 = 0.2537	997.1	1.5187	1458.5
308.15 K, x2 = 0.3387	993.2	1.5006	1416.8
308.15 K, x2 = 0.4432	988.3	1.4791	1368.5
308.15 K, x2 = 0.5468	983.1	1.4586	1321.7
308.15 K, x2 = 0.6546	977.5	1.4381	1276
308.15 K, x2 = 0.7559	972	1.4196	1234.1
308.15 K, x2 = 0.884	965.1	1.3974	1182.1
313.15 K, x2 = 0	1004.1	1.5727	1579.1
313.15 K, x2 = 0.073	1001	1.556	1536.6
313.15 K, x2 = 0.1652	996.6	1.5354	1485.3
313.15 K, x2 = 0.2537	992.5	1.5162	1439.1
313.15 K, x2 = 0.3387	988.5	1.4983	1397.4
313.15 K, x2 = 0.4432	983.5	1.477	1349
313.15 K, x2 = 0.5468	978.1	1.4566	1302
313.15 K, x2 = 0.6546	972.4	1.4362	1256.3
313.15 K, x2 = 0.7559	966.8	1.4176	1214.2
313.15 K, x2 = 0.884	959.8	1.3954	1162.1
318.15 K, x2 = 0	999.7	1.5694	1560
318.15 K, x2 = 0.073	996.5	1.5531	1517.6
318.15 K, x2 = 0.1652	992.1	1.5327	1466
318.15 K, x2 = 0.2537	987.9	1.5137	1419.8
318.15 K, x2 = 0.3387	983.7	1.496	1378
318.15 K, x2 = 0.4432	978.6	1.4749	1329.5
318.15 K, x2 = 0.5468	973.1	1.4545	1282.5
318.15 K, x2 = 0.6546	967.2	1.4343	1236.6
318.15 K, x2 = 0.7559	961.4	1.4156	1194.5
318.15 K, x2 = 0.884	954.3	1.3933	1142.2
323.15 K, x2 = 0	995.4	1.5661	1540.9
323.15 K, x2 = 0.073	992.1	1.5501	1498.2
323.15 K, x2 = 0.1652	987.6	1.5302	1446.8
323.15 K, x2 = 0.2537	983.2	1.5113	1400.5
323.15 K, x2 = 0.3387	979	1.4937	1358.7
323.15 K, x2 = 0.4432	973.7	1.4728	1310.1
323.15 K, x2 = 0.5468	968.1	1.4525	1263
323.15 K, x2 = 0.6546	962	1.4323	1217.1
323.15 K, x2 = 0.7559	956.1	1.4138	1174.9
323.15 K, x2 = 0.884	948.8	1.3913	1122.5
